Data: article PMC4424558, “Antimicrobial and antioxidant flavonoids from the leaves of Oncoba spinosa Forssk. (Salicaceae)” (BMC Complementary and Alternative Medicine, 2015)
Converted amounts (≈) assume the structure as drawn. Like-named read-outs stand apart in the source and are kept apart here.

Columns and labels:
[1] = test system: Enterobacter aerogenes ATCC13048; experiment: Broth microdilution MIC/MBC against Enterobacter aerogenes ATCC13048; format: cell-based; details: for MBC / MIC: Klebsiella aerogenes; for MIC: 37°C, 24 h
Method: (§1) The studied microorganisms were both reference (from the American Type Culture Collection) and clinical (from Pasteur Institute Paris, France) strains of Enterobacter aerogenes, Escherichia coli, Klebsiella pneumoniae, Candida albicans, and Cryptococcus neoformans. Also, included were two clinical isolates of Candida parapsilosis and Staphylococcus aureus collected from Pasteur Centre (Yaoundé-Cameroon). The bacterial and fungal species were grown at 37°C and maintained on nutrient agar (NA, Conda, Madrid, Spain) and Sabouraud Dextrose Agar (SDA, Conda) slants respectively.
(§2) The inocula of yeasts and bacteria were prepared from overnight cultures by picking numerous colonies and suspending them in sterile saline (NaCl) solution (0.90%). Absorbance was read at 530 nm for yeasts or at 600 nm for bacteria and adjusted with the saline solution to match that of a 0.50 McFarland standard solution. From the prepared microbial solutions, other dilutions with saline solution were prepared to give a final concentration of 10^6 yeast cells/ml and 10^6 CFU/ml for bacteria.
(§3) The antimicrobial activity was investigated by determining the minimum inhibitory concentrations (MICs), minimum bactericidal concentrations (MBCs) and minimum fungicidal concentrations (MFCs).
(§4) MICs were determined by broth micro dilution. Stock solutions of the tested samples were prepared in 10% v/v aqueous dimethylsulfoxide (DMSO) solution (Fisher chemicals, Strasbourg, France) at concentration of 4096 μg/ml. This was two-fold serially diluted in Mueller-Hinton Broth (MHB) for bacteria and Sabouraud Dextrose Broth (SDB) for fungi to obtain a concentration range of 2048 to 0.25 μg/ml. For every experiment, a sterility check (10% aqueous DMSO and medium), negative control (10% aqueous DMSO, medium and inoculum) and positive control (10% aqueous DMSO, medium, inoculum and water-soluble antibiotics) were included. One hundred microliters of each concentration was introduced into a well (96-wells microplate) containing 90 μl of SDB or MHB and 10 μl of inoculum was added to obtain a final concentration range of 4096 to 0.125 μg/ml. The plates were covered with a sterile lid, and incubated on the shaker at 37°C for 24 h (bacteria) and 48 h (yeasts). MICs were assessed visually after the corresponding incubation period and were taken as the lowest sample concentration at which there was no growth or virtually no growth. The assay was repeated thrice.
(§5) The lowest concentration that yielded no growth after the sub-culturing was taken as the MBCs or MFCs. Chloramphenicol (Sigma-Aldrich, Steinheim, Germany) for bacteria and nystatin (Sigma-Aldrich, Steinheim, Germany) for yeasts were used as positive controls.

[2] = test system: Escherichia coli ATCC8739; experiment: Broth microdilution MIC/MBC against Escherichia coli ATCC8739; format: cell-based; details: for MIC: 37°C, 24 h
Method: as §1, §2, §3, §4, §5

[3] = test system: Klebsiella pneumoniae ATCC11296; experiment: Broth microdilution MIC/MBC against Klebsiella pneumoniae ATCC11296; format: cell-based; details: for MIC: 37°C, 24 h
Method: as §1, §2, §3, §4, §5

[4] = test system: Staphylococcus aureus; experiment: Broth microdilution MIC/MBC against Staphylococcus aureus; format: cell-based; details: Staphylococcus aureus clinical isolate; for MIC: 37°C, 24 h
Method: as §1, §2, §3, §4, §5

[5] = test system: Candida parapsilosis; experiment: Broth microdilution MIC/MFC against Candida parapsilosis; format: cell-based; details: Candida parapsilosis clinical isolate; for MIC: 37°C, 48 h
Method: as §1, §2, §3, §4, §5

[6] = test system: Candida albicans ATCC 9002; experiment: Broth microdilution MIC/MFC against Candida albicans ATCC 9002; format: cell-based; details: for MIC: 48 h
Method: as §1, §2, §3, §4, §5

[7] = test system: Cryptococcus neoformans IP 90526; experiment: Broth microdilution MIC/MFC against Cryptococcus neoformans IP 90526; format: cell-based; details: for MIC: 48 h
Method: as §1, §2, §3, §4, §5

[8] = test system: bacteria; experiment: Broth microdilution, bacterial strains (panel summary); format: cell-based; details: range over the bacterial strains
Method: as §1
as §2, with “bacteria. […]” for “bacteria.”
MICs were determined by broth micro dilution. […] MICs were assessed visually after the corresponding incubation period and were taken as the lowest sample concentration at which there was no growth or virtually no growth. […]

[9] = test system: fungi; experiment: Broth microdilution, fungal strains (panel summary); format: cell-based
Method: as §1, §2, §3
as §4, with “One hundred microliters of each concentration was introduced into a well (96-wells microplate) containing 90 μl of SDB or MHB and 10 μl of inoculum was added to obtain a final concentration range of 4096 to 0.125 μg/ml. The plates were covered with a sterile lid, and incubated on the shaker at 37°C for 24 h (bacteria) and 48 h (yeasts).” left out, “The assay was repeated thrice.” left out

[10] = test system: bacterial and fungal species; experiment: Broth microdilution, all studied microorganisms (panel summary); format: cell-based; details: out of 7 studied microorganisms
Method: as §1, §2, §3, §4, §5

[11] = DPPH free radical scavenging assay; format: biochemical; details: 30 min, room temperature, 517 nm
Method: The free radical scavenging activity of the MeOH extract as well as some of its isolated compounds was evaluated according to described methods with slight modifications. Briefly, the test samples, prior dissolved in DMSO (SIGMA) beforehand, were mixed with a 20 mg/l 2,2-diphenyl-1-picryl-hydrazyl (DPPH) methanol solution, to give final concentrations of 10, 50, 100, 500 and 1000 μg/ml. After 30 min at room temperature, the absorbance values were measured at 517 nm and converted into percentage of antioxidant activity. L-ascorbic acid was used as a standard control. The percentage of decolouration of DPPH (%) was calculated as follows: %decolourationofDPPH=Absorbanceofcontrol−Absorbanceoftestsample)×100/Absorbanceofcontrol
The percentage of decolouration of DPPH (%) was plotted against the test sample. Also, the percentage of decolouration of DPPH was converted in probits. The probit values were plotted against the logarithmic values of concentrations of the test samples and a linear regression curve was established in order to calculate the EC50 (μg/ml), which is the amount of sample necessary to decrease by 50% the absorbance of DPPH [11]. All the analyses were carried out in triplicate.

[12] = Trolox equivalent antioxidant capacity (TEAC) assay; format: biochemical; details: ABTS/laccase, 420 nm, 230 s; 20 μg/ml isolated compounds, 10-400 μg/ml MeOH extract; gallic acid equivalents
Method: The TEAC test was done as previously described with slight modifications. In a quartz cuvette, to 950 μl acetate buffer (pH = 5.0, 100 mM), the following were added: 20 μl laccase (1 mM stock solution), 20 μl test sample, 10 μl ABTS (2,2′-azinobis(3-ethylbenzothiazoline-6-sulfonic acid)) (74 mM stock solution). The laccase were purified from Sclerotinia sclerotiorum according to the protocol described. The sample concentrations in the assay mixture were 400, 200, 100, 10 μg/ml for the MeOH extract and 20 μg/ml for the isolated compounds. The content of the generated ABTS^●+ radical was measured at 420 nm after 230 s reaction time and was converted to gallic acid equivalents by the use of a calibration curve (Pearson’s correlation coefficient: r = 0.998) constructed with 0, 4, 10, 14, 28, 56, 84 μM gallic acid standards rather than Trolox. Experiments were done in triplicate.

Row | MBC/MIC [1] | MIC [1] [µg/mL] | MBC/MIC [2] | MIC [2] [µg/mL] | MBC/MIC [3] | MIC [3] [µg/mL] | MBC/MIC [4] | MIC [4] [µg/mL] | MIC (range over bacteria) [8] [µg/mL] | EC50, concentration scavenging 50% of DPPH radical [11] [µg/mL] | SMILES | MBC [1] [µg/mL] | MBC [2] [µg/mL] | MBC [3] [µg/mL] | MBC [4] [µg/mL] | other results
1 | 1 | 32 (≈ 52.4 µM) | 1 | 64 (≈ 105 µM) | 2 | 8 (≈ 13.1 µM) | 2 | 64 (≈ 105 µM) | 8 to 64 | 9.63 | C[C@@H]1O[C@@H](OC[C@H]2O[C@@H](Oc3c(-c4ccc(O)c(O)c4)oc4cc(O)cc(O)c4c3=O)[C@H](O)[C@@H](O)[C@@H]2O)[C@H](O)[C@H](O)[C@H]1O [Compound 5, quercetin 3-O-α-L-rhamnopyranosyl (1 → 6) β-D-glucopyranoside] | 32 (≈ 52.4 µM) | 64 (≈ 105 µM) | 16 (≈ 26.2 µM) | 128 (≈ 210 µM) | MIC ([5]; Lodderomyces parapsilosis, read-out: MIC): > 256 µg/mL; MIC ([6]; ATCC9002, 37°C, read-out: MIC): > 256 µg/mL; MIC ([7]; IP90526, 37°C, read-out: MIC): > 256 µg/mL; activity against fungal/yeast strains (in words) ([9]; fungal strains): inactive; studied microorganisms on which inhibitory effects were noted [10]: 4/7; Gallic acid equivalent antioxidant capacity (TEAC) [12]: 78.35 µg/mL
2 | 1 | 64 (≈ 198 µM) | 1 | 64 (≈ 198 µM) | 1 | 16 (≈ 49.5 µM) | 1 | 64 (≈ 198 µM) | 16 to 64 |  | O=C(N[C@H](CO)[C@H](O)c1ccc([N+](=O)[O-])cc1)C(Cl)Cl [chloramphenicol, Chloramphenicol, reference compound] | 64 (≈ 198 µM) | 64 (≈ 198 µM) | 16 (≈ 49.5 µM) | 64 (≈ 198 µM) | 
3 |  |  |  |  |  |  |  |  |  |  | C[C@@H]1[C@H](O)[C@@H](C)/C=C/C=C/CC/C=C/C=C/C=C/C=C/C(O[C@H]2O[C@H](C)[C@@H](O)[C@H](N)[C@@H]2O)CC2O[C@](O)(CC(O)C(O)CCC(O)CC(O)CC(O)CC(=O)O[C@H]1C)CC(O)C2C(=O)O (some centres unmarked) [nystatin, reference compound] |  |  |  |  | MFC [5]: 256 µg/mL (≈ 276 µM); MFC/MIC [5]: 1; MIC [5]: 256 µg/mL (≈ 276 µM); MFC [6]: 128 µg/mL (≈ 138 µM); MFC/MIC [6]: 1; MIC ([6]; 37°C): 128 µg/mL (≈ 138 µM); MFC [7]: 256 µg/mL (≈ 276 µM); MFC/MIC [7]: 2; MIC ([7]; 37°C): 128 µg/mL (≈ 138 µM); MIC (range over fungi) ([9]; range over the fungal strains): 128 to 256 µg/mL
4 |  |  |  |  |  |  |  |  |  | 4.72 | O=C1O[C@H]([C@@H](O)CO)C(O)=C1O [vitamin C, L-ascorbic acid, reference compound] |  |  |  |  | 
